In patent EP4772505A1, “COMPOUND FOR DEGRADING ANDROGEN RECEPTOR AND MEDICAL USE THEREOF” (Ubix Therapeutics, Inc., priority 2023, dated 2025):
Read-outs that look alike come from different tables or passages of the source.

Biological target: T1, Androgen Receptor (AR) (Homo sapiens, UniProt P10275)
T1 sequence (P10275 1-920): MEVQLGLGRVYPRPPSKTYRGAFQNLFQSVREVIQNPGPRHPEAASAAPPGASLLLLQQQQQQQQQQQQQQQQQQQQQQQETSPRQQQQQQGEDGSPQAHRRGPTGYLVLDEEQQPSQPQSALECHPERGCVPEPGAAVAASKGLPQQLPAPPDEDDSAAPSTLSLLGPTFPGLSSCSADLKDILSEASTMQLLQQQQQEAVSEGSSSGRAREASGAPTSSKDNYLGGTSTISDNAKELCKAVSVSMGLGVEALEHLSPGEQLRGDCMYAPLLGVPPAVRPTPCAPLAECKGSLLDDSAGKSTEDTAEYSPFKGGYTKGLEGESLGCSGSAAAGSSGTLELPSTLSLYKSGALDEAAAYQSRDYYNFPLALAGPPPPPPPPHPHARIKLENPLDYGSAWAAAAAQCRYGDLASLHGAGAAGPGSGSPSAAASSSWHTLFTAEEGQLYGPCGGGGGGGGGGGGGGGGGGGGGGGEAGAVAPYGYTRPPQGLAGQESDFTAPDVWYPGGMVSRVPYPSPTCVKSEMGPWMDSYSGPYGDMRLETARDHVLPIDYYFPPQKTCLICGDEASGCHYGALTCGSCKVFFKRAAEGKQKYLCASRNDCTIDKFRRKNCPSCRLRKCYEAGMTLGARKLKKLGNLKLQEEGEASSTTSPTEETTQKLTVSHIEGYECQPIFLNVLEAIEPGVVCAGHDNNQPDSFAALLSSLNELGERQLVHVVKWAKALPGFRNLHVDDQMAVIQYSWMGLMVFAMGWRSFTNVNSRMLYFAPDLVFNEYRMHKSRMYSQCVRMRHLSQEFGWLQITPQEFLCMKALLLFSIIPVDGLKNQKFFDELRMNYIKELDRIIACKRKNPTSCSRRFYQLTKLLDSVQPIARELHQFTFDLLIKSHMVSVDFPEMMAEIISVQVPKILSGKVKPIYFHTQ
Assay: Measurement of AR protein degradation in VCaP cells by Western blotting
Type: cell-based
Parameters: endogenous in cells; host or cells: VCaP
Details: for Dmax at 0.01 µM / Dmax at 0.1 µM: read-out: AR degradation in VCaP cells (%); for Dmax: read-out: AR degradation in VCaP cells Dmax (%); for DC50: read-out: AR degradation in VCaP cells DC50
Protocol: The amount of AR protein present in LNCaP or VCaP cells was measured after treating them with the synthesized compound. The amount of AR protein was measured using Western blotting. The protocol for the experiments using LNCaP or VCaP cells was as follows.
[Culture] LNCaP cells were resuspended in RPMI1640 medium + HEPES (Hyclone, SH30255.01), 10% FBS (Hyclone, SV30207.02), and 1% Penicillin-streptomycin (Welgene, LS 202-02). 3 x 10^5 cells/mL were seeded in 12-well plates (1 mL per well) and cultured for 3 days. VCaP cells were resuspended in IMDM MEDIUM (Hyclone, SH30228.01), 20% FBS (Hyclone, SV30207.02), and 1% Penicillin-streptomycin (Welgene, LS 202-02), seeded at 9 x 10^5/mL in 1 mL per 12-well plate, and cultured for 3 days.
[Compound Treatment] 10 µL of 100x stock (e.g., 0.1, 1, 10 µM) compound solution at the final compound treatment concentration (e.g., 0.001, 0.01, 0.1 µM) was added to each well in 1 mL media, and cells were harvested after 20 hours. For DC50 measurement, 100x stock (0.01, 0.1, 1, 10, 100, 1000 µM) compound solutions at the final compound treatment concentration (0.0001, 0.001, 0.01, 0.1, 1, 10 µM) were used.
[Cell lysis] The cell pellet was suspended using 1% SDS lysis buffer (50 mM Tris, 1 mM EDTA, 1% SDS, pH 8.0, 0.5 mM PMSF, 1x Protease/Phosphatase inhibitor Cocktail (Cell Signaling Technology, 5872S)), and sonication (70% AMP, 10 cycles (30 sec ON/59 sec OFF)) was performed. After centrifugation at 4°C and 20,000 g for 20 minutes, the cell lysate was obtained and transferred to a new tube.
[Protein Quantification] A BCA protein assay (SMART™ BCA Protein Assay Kit, iNtRON Biotechnology, 21071) was performed using a 96-well microplate. 5 µL of cell lysate and 5 µL of 1% SDS lysis buffer were added to each well of the 96-well plate, followed by an additional 200 µL of BCA reagent (Reagent A: Reagent B = 50:1). The wells were incubated at 37°C for 30 minutes and cooled to room temperature for 10 minutes. After shaking for 10 seconds, the absorbance was measured at a wavelength of 562 nm. The unknown protein concentration was determined using a BSA standard curve (0, 0.125, 0.25, 0.5, 1, 2 mg/mL). Western blotting samples were prepared by mixing cell lysate, 1% SDS lysis buffer, 4x NuPAGE™ LDS Sample buffer (Invitrogen, NP0008), and 10X NuPAGE™ Sample Reducing Agent (Invitrogen, NP0009) and boiling at 70°C for 10 minutes.
[Electrophoresis] 10 µg of protein sample was loaded into each well of a NuPAGE™ 4 to 12%, Bis-Tris, 1.0 mm Mini Protein Gel, 15-well, 17-well, or 26-well (Invitrogen, NP0323BOX, NP0329BOX, or WG1403BOX) and electrophoresed for 40 minutes using NuPAGE™MES SDS Running Buffer (Invitrogen, NP0002) at 200 V (constant V).
[Transfer] Transfer was performed for 15 or 18 minutes using the electrophoresed gel and the Trans-Blot® Turbo™ Transfer Starter System (Bio-RAD, #17001918, Mini Nitrocellulose) at 1.3 A (constant A) and 25 V (limit V). To confirm protein transfer, 15 mL of Ponceau S solution (Sigma, P7170-1L) was used to stain for 1 minute, and then washed to check the degree of transfer.
[Blocking] The membrane for AR and GAPDH detection was blocked with 5% skim milk/0.2% TBST (Skim milk: BD, 232100/ 20X TBS: Biosesang, TR2008-100-00/ 10% Tween 20 Solution: Bio-RAD, #161-0781) for 45 minutes.
[Antibodies and Detection] Primary AR antibody (Androgen Receptor: CST, 5153S) was mixed with 5% skim milk/0.2% TBST at a ratio of 1:1,000 and reacted at room temperature for 3 hours or at 4°C overnight. Primary GAPDH antibody (CST, 2118S) was mixed with 5% skim milk/0.2% TBST at a ratio of 1:2,000 and reacted at room temperature for 3 hours or at 4°C overnight. Afterwards, TBST (0.2% Tween 20) was used for washing three times every 5 minutes. Secondary antibody to AR antibody, Anti-rabbit IgG, HRP-linked Antibody (CST, 7074S), was mixed with 5% skim milk/0.2% TBST at a ratio of 1:5,000 and reacted at room temperature for 45 minutes. […]

Dmax at 0.01 µM (10 nM compound, 20 hours, VCaP cells)	Dmax at 0.1 µM (100 nM compound, 20 hours, VCaP cells)	SMILES	Dmax at 0.01 µM (VCaP, 20 h)	Dmax at 0.1 µM (VCaP, 20 h)	Dmax (VCaP)	DC50 (VCaP cells, 20 hours)
–	–	N#Cc1ccc(N2CCC(C(=O)Nc3ccc(OC4CCN(CC5CCN(c6ccc(NC7CCC(=O)NC7=O)cc6F)CC5)CC4)cn3)CC2)cc1C(F)(F)F (stereo not drawn) [Example 1, 1-(4-cyano-3-(trifluoromethyl)phenyl)-N-(5-((1-((1-(4-((2,6-dioxopiperidin-3-yl)amino)-2-fluorophenyl)piperidin-4-yl)methyl)piperidin-4-yl)oxy)pyridin-2-yl)piperidine-4-carboxamide]	89%	99%	–	–
–	–	N#Cc1ccc(N2CCC(C(=O)Nc3ccc(OC4CCN(CC5CCN(c6ccc(N[C@H]7CCC(=O)NC7=O)cc6F)CC5)CC4)cn3)CC2)cc1C(F)(F)F [Example 2, (S)-1-(4-cyano-3-(trifluoromethyl)phenyl)-N-(5-((1-((1-(4-((2,6-dioxopiperidin-3-yl)amino)-2-fluorophenyl)piperidin-4-yl)methyl)piperidin-4-yl)oxy)pyridin-2-yl)piperidine-4-carboxamide]	83%	99%	99%	190 pM
–	–	N#Cc1ccc(N2CCC(C(=O)Nc3ccc(OC4CCN(CC5CCN(c6ccc(N[C@@H]7CCC(=O)NC7=O)cc6F)CC5)CC4)cn3)CC2)cc1C(F)(F)F [Example 3, (R)-1-(4-cyano-3-(trifluoromethyl)phenyl)-N-(5-((1-((1-(4-((2,6-dioxopiperidin-3-yl)amino)-2-fluorophenyl)piperidin-4-yl)methyl)piperidin-4-yl)oxy)pyridin-2-yl)piperidine-4-carboxamide]	72%	96%	–	–
–	–	N#Cc1ccc(N2CCC(C(=O)Nc3ccc(OC4CCN(CC5CCN(c6ccc(NC7CCC(=O)NC7=O)cc6F)CC5)CC4)nn3)CC2)cc1C(F)(F)F (stereo not drawn) [Example 7, 1-(4-cyano-3-(trifluoromethyl)phenyl)-N-(6-((1-((1-(4-((2,6-dioxopiperidin-3-yl)amino)-2-fluorophenyl)piperidin-4-yl)methyl)piperidin-4-yl)oxy)pyridazin-3-yl)piperidine-4-carboxamide]	94%	100%	–	–
–	–	N#Cc1ccc(N2CCC(C(=O)Nc3ccc(OC4CCN(CC5CCN(c6ccc(NC7CCC(=O)NC7=O)cc6F)CC5)CC4)cn3)CC2)cc1Cl (stereo not drawn) [Example 8, 1-(3-chloro-4-cyanophenyl)-N-(5-((1-((1-(4-((2,6-dioxopiperidin-3-yl)amino)-2-fluorophenyl)piperidin-4-yl)methyl)piperidin-4-yl)oxy)pyridin-2-yl)piperidine-4-carboxamide]	94%	99%	–	–
–	–	N#Cc1ccc(N2CCC(C(=O)Nc3ccc(OC4CCN(CC5CCN(c6ccc(N[C@H]7CCC(=O)NC7=O)cc6F)CC5)CC4)cn3)CC2)cc1Cl [Example 9, (S)-1-(3-chloro-4-cyanophenyl)-N-(5-((1-((1-(4-((2,6-dioxopiperidin-3-yl)amino)-2-fluorophenyl)piperidin-4-yl)methyl)piperidin-4-yl)oxy)pyridin-2-yl)piperidine-4-carboxamide]	94%	99%	99%	100 pM
–	–	N#Cc1ccc(N2CCC(C(=O)Nc3ccc(OC4CCN(CC5CCN(c6ccc(N[C@@H]7CCC(=O)NC7=O)cc6F)CC5)CC4)cn3)CC2)cc1Cl [Example 10, (R)-1-(3-chloro-4-cyanophenyl)-N-(5-((1-((1-(4-((2,6-dioxopiperidin-3-yl)amino)-2-fluorophenyl)piperidin-4-yl)methyl)piperidin-4-yl)oxy)pyridin-2-yl)piperidine-4-carboxamide]	85%	99%	–	–
–	–	N#Cc1ccc(N2CCC(C(=O)Nc3ccc(OC4CCN(CC5CCN(c6ccc(NC7CCC(=O)NC7=O)cc6F)CC5)CC4)cn3)CC2)c(F)c1Cl (stereo not drawn) [Example 12, 1-(3-chloro-4-cyano-2-fluorophenyl)-N-(5-((1-((1-(4-((2,6-dioxopiperidin-3-yl)amino)-2-fluorophenyl)piperidin-4-yl)methyl)piperidin-4-yl)oxy)pyridin-2-yl)piperidine-4-carboxamide]	94%	98%	–	–
95%	100%	COc1cc(N2CCC(C(=O)Nc3ccc(OC4CCN(CC5CCN(c6ccc(NC7CCC(=O)NC7=O)cc6F)CC5)CC4)cn3)CC2)ccc1C#N (stereo not drawn) [Example 13, 1-(4-cyano-3-methoxyphenyl)-N-(5-((1-((1-(4-((2,6-dioxopiperidin-3-yl)amino)-2-fluorophenyl)piperidin-4-yl)methyl)piperidin-4-yl)oxy)pyridin-2-yl)piperidine-4-carboxamide]	–	–	–	–
–	–	N#Cc1ccc(N2CCC(C(=O)Nc3ccc(OC4CCN(CC5CCN(c6ccc(NC7CCC(=O)NC7=O)cc6F)CC5)CC4)nn3)CC2)c(F)c1Cl (stereo not drawn) [Example 15, 1-(3-chloro-4-cyano-2-fluorophenyl)-N-(6-((1-((1-(4-((2,6-dioxopiperidin-3-yl)amino)-2-fluorophenyl)piperidin-4-yl)methyl)piperidin-4-yl)oxy)pyridazin-3-yl)piperidine-4-carboxamide]	98%	100%	–	–
